{"source": "ChEMBL document CHEMBL2074119", "about": "“Multispecific substrate recognition of kidney-specific organic anion transporters OAT-K1 and OAT-K2” (J Pharmacol Exp Ther, 2001)", "molecules": {"B1": {"name": "Solute carrier organic anion transporter family member 1A3 (Rattus norvegicus) (protein)", "chain": "MGDLEKGAATHGAGCFAKIKVFLMALTCAYVSKSLSGTFMSSMLTQIERQFGIPTAIVGFINGSFEIGNLLLIIFVSYFGMKLHRPIVIGVGCAVMGLGCFIISLPHFLMGRYEYETTILPTSNLSSNSFLCMENQTQTLNPAQDPAECVKEVKSLMWIYVLVGNIIRGIGETPIMPLGVSYIENFAKSENSPLYIGILETGKMIGPIFGLLLGSFCASIYVDTGSVNTDDLTITPTDIRWVGAWWIGFLVCAGVNILISIPFFFFPKTLPKEGLQENVDGTENAKEESTEKRPRKKNRGITKDFFPFLKSPVLQPDLHAVHPYKVLQVNAFNIYFSFLPKYLENQYGKSTAEVIFLMGVYNLPAICIGYLIAGFMMKKFKITVKTAAFLAFCLSLSEYSFGFCNFLITCDNVPVAGLTNSYERDQKPLYLENNVLADCNTRCSCLTKTWDPVCGDNGLAYMSACLAGCEKSVGTGTNMVFHNCSCIQSPGNSSAVLGLCNKGPECTNKLQYLLILSGFLSILYSFAAIPGYMVFLRCIKSEEKSLGIGIHAFCIRVFAGIPAPIYFGALIDRTCLHWGTQKCGAPGACRMYDINSFRRIYLGMSAALRGSSYLPAFVIVILTRKFSLPGKINSSEMEIAEMKLTEKESQCTDVHRNPKFKNDGELKTKL"}}, "key": {"[1]": {"target": "T1, Solute carrier organic anion transporter family member 1A3 (Rattus norvegicus, UniProt P70502)", "T1 sequence (P70502 whole entry)": "B1 chain", "assay": "TP_TRANSPORTER: inhibition of Taurocholate uptake (Taurocholate: 0.25 uM, OTA: 100 uM) in OAT-K1-expressing MDCK cells", "assay_type": "functional, cell-based", "conditions": "dog"}, "[2]": {"target": "T2, OAT-K2 (Solute carrier organic anion transporter family member 1A3) (Rattus norvegicus, UniProt P70502)", "T2 sequence (P70502 whole entry)": "B1 chain", "assay": "(§1) TP_TRANSPORTER: uptake in OAT-K2-expressing MDCK cells", "assay_type": "functional, cell-based", "conditions": "dog"}, "[3]": {"target": "T3, OAT-K1 (Solute carrier organic anion transporter family member 1A3) (Rattus norvegicus, UniProt P70502)", "T3 sequence (P70502 whole entry)": "B1 chain", "assay": "(§2) TP_TRANSPORTER: uptake in OAT-K1-expressing MDCK cells", "assay_type": "functional, cell-based", "conditions": "dog"}, "[4]": {"target": "T1, Solute carrier organic anion transporter family member 1A3", "assay": "TP_TRANSPORTER: inhibition of Taurocholate uptake (Taurocholate: 0.25 uM, DHEA-3-acetate: 100 uM) in OAT-K1-expressing MDCK cells", "assay_type": "functional, cell-based", "conditions": "dog"}, "[5]": {"target": "T1, Solute carrier organic anion transporter family member 1A3", "assay": "TP_TRANSPORTER: inhibition of MTX uptake (MTX: 0.1 uM, T4: 50 uM) in OAT-K2-expressing MDCK cells", "assay_type": "functional, cell-based", "conditions": "dog"}, "[6]": {"target": "T1, Solute carrier organic anion transporter family member 1A3", "assay": "TP_TRANSPORTER: inhibition of MTX uptake (MTX: 0.1 uM, T3: 50 uM) in OAT-K2-expressing MDCK cells", "assay_type": "functional, cell-based", "conditions": "dog"}, "[7]": {"target": "T4, Solute carrier organic anion transporter family member 1A4 (Rattus norvegicus, UniProt O35913)", "T4 sequence (O35913 whole entry)": "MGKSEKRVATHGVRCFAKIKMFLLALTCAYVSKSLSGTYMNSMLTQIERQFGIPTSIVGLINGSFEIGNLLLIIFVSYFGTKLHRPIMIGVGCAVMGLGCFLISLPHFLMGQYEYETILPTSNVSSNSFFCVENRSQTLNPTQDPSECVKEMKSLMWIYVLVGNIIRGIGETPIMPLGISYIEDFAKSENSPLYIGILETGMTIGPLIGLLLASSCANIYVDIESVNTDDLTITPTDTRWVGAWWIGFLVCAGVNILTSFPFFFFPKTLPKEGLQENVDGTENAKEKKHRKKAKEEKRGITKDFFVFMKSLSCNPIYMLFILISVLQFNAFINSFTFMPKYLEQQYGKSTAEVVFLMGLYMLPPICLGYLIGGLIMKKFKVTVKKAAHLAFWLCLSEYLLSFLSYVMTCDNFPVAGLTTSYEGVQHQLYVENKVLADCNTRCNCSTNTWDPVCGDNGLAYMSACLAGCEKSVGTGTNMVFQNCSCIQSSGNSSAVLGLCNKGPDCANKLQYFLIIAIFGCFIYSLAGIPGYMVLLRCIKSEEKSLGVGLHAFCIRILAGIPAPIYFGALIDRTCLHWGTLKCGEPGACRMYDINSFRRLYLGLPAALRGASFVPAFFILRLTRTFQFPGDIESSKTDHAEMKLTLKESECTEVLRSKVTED", "assay": "TP_TRANSPORTER: inhibition of Digoxin uptake in Xenopus laevis oocytes"}, "[8]": {"target": "T1, Solute carrier organic anion transporter family member 1A3", "assay": "TP_TRANSPORTER: inhibition of T3 uptake (T3: 0.43nM, MTX: 2500 uM) in OAT-K2-expressing MDCK cells", "assay_type": "functional, cell-based", "conditions": "dog"}, "[9]": {"target": "T1, Solute carrier organic anion transporter family member 1A3", "assay": "TP_TRANSPORTER: inhibition of T3 uptake (T3: 0.43nM, MTX: 2500 uM) in OAT-K1-expressing MDCK cells", "assay_type": "functional, cell-based", "conditions": "dog"}, "[10]": {"target": "T1, Solute carrier organic anion transporter family member 1A3", "assay": "TP_TRANSPORTER: inhibition of Taurocholate uptake (Taurocholate: 0.25 uM, DHEAS: 100 uM) in OAT-K1-expressing MDCK cells", "assay_type": "functional, cell-based", "conditions": "dog"}, "[11]": {"target": "T1, Solute carrier organic anion transporter family member 1A3", "assay": "TP_TRANSPORTER: inhibition of Taurocholate uptake (Taurocholate: 0.25 uM, DHEA: 100 uM) in OAT-K1-expressing MDCK cells", "assay_type": "functional, cell-based", "conditions": "dog"}, "[12]": {"substrate": "CN(Cc1cnc2nc(N)nc(N)c2n1)c1ccc(C(=O)N[C@@H](CCC(=O)O)C(=O)O)cc1", "assay": "as §1", "assay_type": "functional, cell-based"}, "[13]": {"substrate": "C[C@]12CC[C@@H]3c4ccc(O)cc4CC[C@H]3[C@@H]1CC[C@@H]2O[C@@H]1O[C@H](C(=O)O)[C@@H](O)[C@H](O)[C@H]1O", "assay": "as §1", "assay_type": "functional, cell-based"}, "[14]": {"substrate": "N[C@@H](Cc1cc(I)c(Oc2cc(I)c(O)c(I)c2)c(I)c1)C(=O)O", "assay": "as §1", "assay_type": "functional, cell-based"}, "[15]": {"substrate": "N[C@@H](Cc1cc(I)c(Oc2ccc(O)c(I)c2)c(I)c1)C(=O)O", "assay": "as §1", "assay_type": "functional, cell-based"}, "[16]": {"substrate": "[H][C@@]12CC=C3C[C@@H](OS(=O)(=O)O)CC[C@]3(C)[C@@]1([H])CC[C@]1(C)C(=O)CC[C@@]21[H]", "assay": "as §1", "assay_type": "functional, cell-based"}, "[17]": {"substrate": "C[C@]12CC[C@@H]3c4ccc(O)cc4CC[C@H]3[C@@H]1CC[C@@H]2O[C@@H]1O[C@H](C(=O)O)[C@@H](O)[C@H](O)[C@H]1O", "assay": "as §2", "assay_type": "functional, cell-based"}, "[18]": {"substrate": "N[C@@H](Cc1cc(I)c(Oc2cc(I)c(O)c(I)c2)c(I)c1)C(=O)O", "assay": "as §2", "assay_type": "functional, cell-based"}, "[19]": {"substrate": "N[C@@H](Cc1cc(I)c(Oc2ccc(O)c(I)c2)c(I)c1)C(=O)O", "assay": "as §2", "assay_type": "functional, cell-based"}, "[20]": {"substrate": "[H][C@@]12CC=C3C[C@@H](OS(=O)(=O)O)CC[C@]3(C)[C@@]1([H])CC[C@]1(C)C(=O)CC[C@@]21[H]", "assay": "as §2", "assay_type": "functional, cell-based"}}, "data": [{"molecule": "C[C@@H]1Cc2c(Cl)cc(C(=O)N[C@@H](Cc3ccccc3)C(=O)O)c(O)c2C(=O)O1", "note": "[3R14S-OCHRATOXIN A]", "values": [{"measurement": "Activity", "setting": "[1]", "result": "inhibitor [(at a rough estimate) 55 % of control]"}, {"measurement": "Km", "setting": "[2]", "result": 16.6, "unit": "µM"}, {"measurement": "Km", "setting": "[3]", "result": 5.6, "unit": "µM"}]}, {"molecule": "CC(=O)O[C@H]1CC[C@@]2(C)C(=CC[C@@H]3[C@@H]2CC[C@]2(C)C(=O)CC[C@@H]32)C1", "note": "[DEHYDROEPIANDROSTERONE ACETATE]", "values": [{"measurement": "Activity", "setting": "[4]", "result": "inhibitor [(at a rough estimate) 30 % of control]"}]}, {"molecule": "N[C@@H](Cc1cc(I)c(Oc2cc(I)c(O)c(I)c2)c(I)c1)C(=O)O", "note": "[LEVOTHYROXINE]", "values": [{"measurement": "Activity", "setting": "[5]", "result": "inhibitor [(at a rough estimate) 60 % of control]"}]}, {"molecule": "N[C@@H](Cc1cc(I)c(Oc2ccc(O)c(I)c2)c(I)c1)C(=O)O", "note": "[LIOTHYRONINE]", "values": [{"measurement": "Activity", "setting": "[6]", "result": "inhibitor [(at a rough estimate) 60 % of control]"}, {"measurement": "IC50", "setting": "[7]", "result": 50.4, "unit": "µM"}]}, {"molecule": "CN(Cc1cnc2nc(N)nc(N)c2n1)c1ccc(C(=O)N[C@@H](CCC(=O)O)C(=O)O)cc1", "note": "[METHOTREXATE]", "values": [{"measurement": "Activity", "setting": "[8]", "result": "inhibitor [(at a rough estimate) 75 % of control]"}, {"measurement": "Activity", "setting": "[9]", "result": "inhibitor [(at a rough estimate) 75 % of control]"}]}, {"molecule": "C[C@]12CC[C@H](OS(=O)(=O)O)CC1=CC[C@@H]1[C@@H]2CC[C@]2(C)C(=O)CC[C@@H]12", "note": "[PRASTERONE SULFURIC ACID]", "values": [{"measurement": "Activity", "setting": "[10]", "result": "inhibitor [(at a rough estimate) 30 % of control]"}]}, {"molecule": "C[C@]12CC[C@H](O)CC1=CC[C@@H]1[C@@H]2CC[C@]2(C)C(=O)CC[C@@H]12", "note": "[PRASTERONE]", "values": [{"measurement": "Activity", "setting": "[11]", "result": "inhibitor [(at a rough estimate) 30 % of control]"}]}, {"molecule": "Cc1cn([C@H]2C[C@H](N=[N+]=[N-])[C@@H](CO)O2)c(=O)[nH]c1=O", "note": "[ZIDOVUDINE]", "values": [{"measurement": "Km", "setting": "[2]", "result": 76.3, "unit": "µM"}, {"measurement": "Km", "setting": "[3]", "result": 64.3, "unit": "µM"}]}, {"molecule": "B1", "values": [{"measurement": "Km", "setting": "[12]", "result": 1.8, "unit": "µM"}, {"measurement": "Km", "setting": "[13]", "result": 44.9, "unit": "µM"}, {"measurement": "Km", "setting": "[14]", "result": 12, "unit": "µM"}, {"measurement": "Km", "setting": "[15]", "result": 24.8, "unit": "µM"}, {"measurement": "Km", "setting": "[16]", "result": 7.6, "unit": "µM"}, {"measurement": "Km", "setting": "[17]", "result": 35.3, "unit": "µM"}, {"measurement": "Km", "setting": "[18]", "result": 20.2, "unit": "µM"}, {"measurement": "Km", "setting": "[19]", "result": 43.8, "unit": "µM"}, {"measurement": "Km", "setting": "[20]", "result": 8.5, "unit": "µM"}]}]}
